Test results: patent US6693137B1, “Sulphonamide derivatives” (Eli Lilly and Company, priority 1998, dated 2004)

Experiments:
[1] = target: T1, human GluR4B receptor (Homo sapiens, UniProt P48058); test: potentiation of agonist-induced excitability of human GluR4B receptor expressed in HEK 293 cells; assay type: cell-based
T1 construct: expressed in transfected cells
Source text: The ability of compounds of formula I to potentiate glutamate receptor-mediated response may be determined using fluorescent calcium indicator dyes (Molecular Probes, Eugene, Oreg., Fluo-3) and by measuring glutamate-evoked efflux of calcium into GluR^4 transfected HEK293 cells, as described in more detail below.
In one test, 96 well plates containing confluent monolayers of HEK cells stably expressing human GluR4B (obtained as described in European Patent Application Publication Number EP-A1-583917) are prepared. The tissue culture medium in the wells is then discarded, and the wells are each washed once with 200 μl of buffer (glucose, 10 mM, sodium chloride, 138 mM, magnesium chloride, 1 mM, potassium chloride, 5 mM, calcium chloride, 5 mM, N-[2-hydroxyethyl]piperazine-N-[2-ethanesulfonic acid], 10 mM, to pH 7.1 to 7.3). […]
Each test is then performed as follows. […] A second fluorescent reading is taken after 5 minutes incubation. 15 μl of 400 μM glutamate solution is then added to each well (final glutamate concentration 100 μM), and a third reading is taken. The activities of test compounds and cyclothiazide solutions are determined by subtracting the second from the third reading (fluorescence due to addition of glutamate in the presence or absence of test compound or cyclothiazide) and are expressed relative to enhance fluorescence produced by 100 μM cyclothiazide.

T1 sequence (P48058 21-902): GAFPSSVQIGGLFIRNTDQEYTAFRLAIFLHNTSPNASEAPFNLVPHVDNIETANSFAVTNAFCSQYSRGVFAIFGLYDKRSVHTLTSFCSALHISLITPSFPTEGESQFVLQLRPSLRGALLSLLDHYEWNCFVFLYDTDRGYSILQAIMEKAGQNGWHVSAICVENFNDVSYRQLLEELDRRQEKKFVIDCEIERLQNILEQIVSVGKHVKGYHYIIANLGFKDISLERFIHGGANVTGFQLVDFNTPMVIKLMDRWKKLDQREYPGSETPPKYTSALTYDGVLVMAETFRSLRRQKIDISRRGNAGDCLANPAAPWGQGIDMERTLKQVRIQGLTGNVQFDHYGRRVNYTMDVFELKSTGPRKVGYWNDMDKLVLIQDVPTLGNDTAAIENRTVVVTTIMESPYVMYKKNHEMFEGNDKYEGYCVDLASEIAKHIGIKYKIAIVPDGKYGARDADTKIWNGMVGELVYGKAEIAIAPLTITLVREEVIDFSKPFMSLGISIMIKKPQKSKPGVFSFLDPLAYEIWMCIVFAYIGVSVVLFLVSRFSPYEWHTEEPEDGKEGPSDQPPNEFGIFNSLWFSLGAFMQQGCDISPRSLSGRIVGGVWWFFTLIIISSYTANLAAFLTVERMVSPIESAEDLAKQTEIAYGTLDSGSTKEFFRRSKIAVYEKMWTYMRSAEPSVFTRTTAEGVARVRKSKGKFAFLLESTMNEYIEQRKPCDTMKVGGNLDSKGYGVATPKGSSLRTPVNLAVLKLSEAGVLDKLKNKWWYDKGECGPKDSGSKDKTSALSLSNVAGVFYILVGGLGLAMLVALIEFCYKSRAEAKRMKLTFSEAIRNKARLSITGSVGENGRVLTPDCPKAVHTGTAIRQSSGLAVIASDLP

Compound	melting point	potentiation of agonist-induced excitability [1]
CC(CNS(=O)(=O)C(C)C)c1ccc(NC(=O)CN2CCCCC2)cc1 (stereo not drawn)	139 to 141 °C	
CC(CNS(=O)(=O)C(C)C)c1ccc(-c2ccc(OCCN3CCCC3)cc2)cc1.Cl (stereo not drawn)	172 to 173 °C	
CC(CNS(=O)(=O)C(C)C)c1ccc(NC(=O)COc2ccccn2)cc1 (stereo not drawn)	176 to 178 °C	
NS(=O)(=O)c1cc2c(cc1Cl)NC(C1CC3C=CC1C3)NS2(=O)=O (stereo not drawn) [cyclothiazide]		potentiate agonist-induced excitability

Further lines, with some results ahead:

melting point	Compound	potentiation of agonist-induced excitability [1]
113 to 116 °C	CCOCC(=O)Nc1ccc(C(C)CNS(=O)(=O)C(C)C)cc1 (stereo not drawn)	
120 to 122 °C	CC(CNS(=O)(=O)C(C)C)c1ccc(NC(=O)CN(C)C)cc1.O=C(O)/C=C\C(=O)O (stereo not drawn)	
